In article PMC5218480 (PLoS ONE, 2017):

Test system: MV-4-11 cells
Experiment: Gene expression microarray analysis (Affymetrix PrimeView) and GSEA
Format: cell-based, human
Set-up: RFU PODN (11730768_x_at) / Fold change /veh PODN (11730768_x_at) / RFU LINC00158 (11744669_a_at) / Fold change /veh LINC00158 (11744669_a_at) / RFU DUSP10 (11751237_a_at) / Fold change /veh DUSP10 (11751237_a_at) / RFU ID3 (11757404_x_at) / Fold change /veh ID3 (11757404_x_at) / RFU PLEKHG5 (11737974_s_at) / Fold change /veh PLEKHG5 (11737974_s_at) / RFU LRRC4B (11730491_at) / Fold change /veh LRRC4B (11730491_at) / RFU GIMAP4 (11747438_a_at) / Fold change /veh GIMAP4 (11747438_a_at) / RFU KRT8 (11758183_x_at) / Fold change /veh KRT8 (11758183_x_at) / RFU CNN1 (11734310_a_at) / Fold change /veh CNN1 (11734310_a_at) / RFU VPS37D (11726825_at) / Fold change /veh VPS37D (11726825_at) / RFU C10orf10 (11716522_x_at) / Fold change /veh C10orf10 (11716522_x_at) / RFU KIR2DL2 /// KIR2DL4 /// KIR2DL5A /// KIR2DL5B /// KIR2DS1 /// KIR2DS2 /// KIR2DS3 /// KIR2DS4 /// KIR3DL3 /// KIR3DL3 /// KIR3DS1 (11738374_at) / Fold change /veh KIR2DL2 /// KIR2DL4 /// KIR2DL5A /// KIR2DL5B /// KIR2DS1 /// KIR2DS2 /// KIR2DS3 /// KIR2DS4 /// KIR3DL3 /// KIR3DL3 /// KIR3DS1 (11738374_at) / RFU C1QL1 (11718748_at) / Fold change /veh C1QL1 (11718748_at) / RFU TMPRSS4 (11747572_a_at) / Fold change /veh TMPRSS4 (11747572_a_at) / RFU HAMP (11756126_x_at) / Fold change /veh HAMP (11756126_x_at) / RFU RNFT2 (11725882_a_at) / Fold change /veh RNFT2 (11725882_a_at) / RFU NR4A2 (11747474_a_at) / Fold change /veh NR4A2 (11747474_a_at) / RFU ABCC12 (11746883_a_at) / Fold change /veh ABCC12 (11746883_a_at) / RFU TMEM136 (11760407_x_at) / Fold change /veh TMEM136 (11760407_x_at) / RFU CLDN22 /// WWC2 (11732394_at) / Fold change /veh CLDN22 /// WWC2 (11732394_at) / RFU HLA-DPB1 (11760878_x_at) / Fold change /veh HLA-DPB1 (11760878_x_at) / RFU SPINT1 (11716480_a_at) / Fold change /veh SPINT1 (11716480_a_at) / RFU GAP43 (11754022_s_at) / Fold change /veh GAP43 (11754022_s_at) / RFU A4GNT (11735810_at) / Fold change /veh A4GNT (11735810_at) / RFU PRB3 (11715151_x_at) / Fold change /veh PRB3 (11715151_x_at) / RFU TUBB4B (11761932_at) / Fold change /veh TUBB4B (11761932_at) / RFU CAPN14 (11732068_a_at) / Fold change /veh CAPN14 (11732068_a_at) / RFU TMCC2 (11721928_a_at) / Fold change /veh TMCC2 (11721928_a_at) / RFU IRGQ (11745062_a_at) / Fold change /veh IRGQ (11745062_a_at) / RFU FAM174B (11720279_a_at) / Fold change /veh FAM174B (11720279_a_at) / RFU TMPRSS4 (11748680_a_at) / Fold change /veh TMPRSS4 (11748680_a_at) / RFU FAM212B (11763350_a_at) / Fold change /veh FAM212B (11763350_a_at) / RFU PLEKHG5 (11743358_a_at) / Fold change /veh PLEKHG5 (11743358_a_at) / RFU ZSCAN30 (11745921_a_at) / Fold change /veh ZSCAN30 (11745921_a_at) / RFU CMKLR1 (11741424_a_at) / Fold change /veh CMKLR1 (11741424_a_at) / RFU LOC101060620 /// MAPK8IP1 (11723275_at) / Fold change /veh LOC101060620 /// MAPK8IP1 (11723275_at) / RFU SPTSSB (11747773_x_at) / Fold change /veh SPTSSB (11747773_x_at) / RFU PRSS12 (11739890_at) / Fold change /veh PRSS12 (11739890_at) / RFU BIN1 (11741810_x_at) / Fold change /veh BIN1 (11741810_x_at) / RFU WNT11 (11732464_a_at) / Fold change /veh WNT11 (11732464_a_at) / RFU C10orf10 (11716521_a_at) / Fold change /veh C10orf10 (11716521_a_at) / RFU C5orf56 (11738089_at) / Fold change /veh C5orf56 (11738089_at) / RFU CYB561 (11721691_x_at) / Fold change /veh CYB561 (11721691_x_at) / RFU ANKRD19P (11752326_a_at) / Fold change /veh ANKRD19P (11752326_a_at) / RFU OR2T12 /// OR2T33 /// OR2T8 (11738714_s_at) / Fold change /veh OR2T12 /// OR2T33 /// OR2T8 (11738714_s_at) / RFU VCAN (11748164_a_at) / Fold change /veh VCAN (11748164_a_at) / RFU JSRP1 (11732532_at) / Fold change /veh JSRP1 (11732532_at) / RFU KRTAP10-11 (11738290_x_at) / Fold change /veh KRTAP10-11 (11738290_x_at) / RFU MYO3A (11730013_a_at) / Fold change /veh MYO3A (11730013_a_at) / RFU EBF3 (11725865_a_at) / Fold change /veh EBF3 (11725865_a_at) / RFU CAMK2N1 (11719241_x_at) / Fold change /veh CAMK2N1 (11719241_x_at) / RFU C5orf56 (11738088_a_at) / Fold change /veh C5orf56 (11738088_a_at) / RFU OLFML3 (11715873_a_at) / Fold change /veh OLFML3 (11715873_a_at) / RFU LOC100653217 /// NTM (11731650_a_at) / Fold change /veh LOC100653217 /// NTM (11731650_a_at) / RFU MAPK11 (11762145_a_at) / Fold change /veh MAPK11 (11762145_a_at) / RFU FIZ1 (11724087_x_at) / Fold change /veh FIZ1 (11724087_x_at) / RFU OASL (11726364_x_at) / Fold change /veh OASL (11726364_x_at) / RFU SOX15 (11748057_x_at) / Fold change /veh SOX15 (11748057_x_at) / RFU CD79A (11719716_a_at) / Fold change /veh CD79A (11719716_a_at) / RFU HIST1H1D (11736915_at) / Fold change /veh HIST1H1D (11736915_at) / RFU CASKIN2 (11723855_a_at) / Fold change /veh CASKIN2 (11723855_a_at) / RFU LOC730098 (11760151_x_at) / Fold change /veh LOC730098 (11760151_x_at) / RFU OR4N2 (11742367_at) / Fold change /veh OR4N2 (11742367_at) / RFU PRRT2 (11749266_a_at) / Fold change /veh PRRT2 (11749266_a_at) / RFU SNX32 (11753110_a_at) / Fold change /veh SNX32 (11753110_a_at) / RFU CDHR5 (11726645_a_at) / Fold change /veh CDHR5 (11726645_a_at) / RFU RCAN1 (11760418_a_at) / Fold change /veh RCAN1 (11760418_a_at) / RFU FAM167A (11723789_a_at) / Fold change /veh FAM167A (11723789_a_at) / RFU FAM26E (11764081_at) / Fold change /veh FAM26E (11764081_at) / RFU ISYNA1 (11749810_s_at) / Fold change /veh ISYNA1 (11749810_s_at) / RFU ACY1 (11761880_at) / Fold change /veh ACY1 (11761880_at) / RFU 11764098_at / Fold change /veh 11764098_at / RFU SAMD14 (11745864_x_at) / Fold change /veh SAMD14 (11745864_x_at) / RFU NPB (11741838_a_at) / Fold change /veh NPB (11741838_a_at) / RFU TMPRSS6 (11731388_a_at) / Fold change /veh TMPRSS6 (11731388_a_at) / RFU KRTAP10-2 (11738614_at) / Fold change /veh KRTAP10-2 (11738614_at) / RFU ARHGAP8 /// PRR5-ARHGAP8 (11727945_x_at) / Fold change /veh ARHGAP8 /// PRR5-ARHGAP8 (11727945_x_at) / RFU KRTAP5-7 /// NADSYN1 (11734609_at) / Fold change /veh KRTAP5-7 /// NADSYN1 (11734609_at) / RFU RASL12 (11751679_a_at) / Fold change /veh RASL12 (11751679_a_at) / RFU CDKN2B (11736163_a_at) / Fold change /veh CDKN2B (11736163_a_at) / RFU PRF1 (11729649_at) / Fold change /veh PRF1 (11729649_at) / RFU, ZNF638 /// ZNF638-IT1 / Fold change vs veh, ZNF638 /// ZNF638-IT1 / RFU, PANK3 / Fold change vs veh, PANK3 / RFU, SH3YL1 / Fold change vs veh, SH3YL1 / RFU, ZEB2 / Fold change vs veh, ZEB2 / RFU, NRIP1 / Fold change vs veh, NRIP1 / RFU, PTTG1IP / Fold change vs veh, PTTG1IP / RFU, CAPN2 / Fold change vs veh, CAPN2 / RFU, MED14 / Fold change vs veh, MED14 / RFU, SNORA58 / Fold change vs veh, SNORA58 / RFU, C1orf63 / Fold change vs veh, C1orf63 / RFU, LRRFIP1 / Fold change vs veh, LRRFIP1 / RFU, NDUFAF7 / Fold change vs veh, NDUFAF7 / RFU, SLC12A2 / Fold change vs veh, SLC12A2 / RFU, IBTK / Fold change vs veh, IBTK / RFU, ESF1 / Fold change vs veh, ESF1 / Fold change vs veh, TMEM50B / RFU, TAOK1 / Fold change vs veh, TAOK1 / RFU, ACBD3 / Fold change vs veh, ACBD3 / RFU, TMA16 / Fold change vs veh, TMA16 / RFU, RWDD3 / Fold change vs veh, RWDD3 / RFU, BCAT1 / Fold change vs veh, BCAT1 / RFU, EDEM3 / Fold change vs veh, EDEM3 / RFU, TMEM33 / Fold change vs veh, TMEM33 / RFU, WDR75 / Fold change vs veh, WDR75 / RFU, AHCTF1 / Fold change vs veh, AHCTF1 / RFU, TFRC / Fold change vs veh, TFRC / RFU, ZDHHC17 / Fold change vs veh, ZDHHC17 / RFU, NOM1 / Fold change vs veh, NOM1 / RFU, ARL8B / Fold change vs veh, ARL8B / RFU, ZBTB11 / Fold change vs veh, ZBTB11 / RFU, TAMM41 / Fold change vs veh, TAMM41 / RFU, KIAA1704 /// LOC100996395 / Fold change vs veh, KIAA1704 /// LOC100996395 / RFU, ING1 / Fold change vs veh, ING1 / RFU, TRMT61B / Fold change vs veh, TRMT61B / RFU, FUBP3 / Fold change vs veh, FUBP3 / RFU, TP53 / Fold change vs veh, TP53 / RFU, TNKS2 / Fold change vs veh, TNKS2 / RFU, ZFP14 / Fold change vs veh, ZFP14 / RFU, ACTR2 / Fold change vs veh, ACTR2 / RFU, PPP3R1 / Fold change vs veh, PPP3R1 / RFU, PIK3R1 / Fold change vs veh, PIK3R1 / RFU, HNRNPA1 / Fold change vs veh, HNRNPA1 / RFU, RNF170 / Fold change vs veh, RNF170 / RFU, ZNF28 / Fold change vs veh, ZNF28 / RFU, RNGTT / Fold change vs veh, RNGTT / RFU, OGT / Fold change vs veh, OGT / RFU, BRD1 / Fold change vs veh, BRD1 / RFU, MARS / Fold change vs veh, MARS / RFU, ZNF655 / Fold change vs veh, ZNF655 / RFU, FAHD1 / Fold change vs veh, FAHD1 / RFU, BDP1 / Fold change vs veh, BDP1 / RFU, LRRCC1 / Fold change vs veh, LRRCC1 / RFU, ARID1A / Fold change vs veh, ARID1A / RFU, ZNF146 / Fold change vs veh, ZNF146 / RFU, ZNF330 / Fold change vs veh, ZNF330 / RFU, GPN3 / Fold change vs veh, GPN3 / RFU, C9orf123 / Fold change vs veh, C9orf123 / RFU, N4BP2L2 / Fold change vs veh, N4BP2L2 / RFU, ARFIP1 / Fold change vs veh, ARFIP1 / RFU, FAM179B / Fold change vs veh, FAM179B / RFU, BCL10 / Fold change vs veh, BCL10 / RFU, UHRF1BP1L / Fold change vs veh, UHRF1BP1L / RFU, BET1 / Fold change vs veh, BET1 / RFU, CNOT2 / Fold change vs veh, CNOT2 / RFU, ZNF268 / Fold change vs veh, ZNF268 / Fold change vs veh, ZNF507 / RFU, DGCR2 / Fold change vs veh, DGCR2 / RFU, WDSUB1 / Fold change vs veh, WDSUB1 / Fold change vs veh, HSP90B1 /// MIR3652 / RFU, ADSS / Fold change vs veh, ADSS / RFU, GK / Fold change vs veh, GK / RFU, ZNF148 / Fold change vs veh, ZNF148 / RFU, TAF9 / Fold change vs veh, TAF9 / RFU, SLC1A5 / Fold change vs veh, SLC1A5 / RFU, SLMO2 / Fold change vs veh, SLMO2 / RFU, ABCC4 / Fold change vs veh, ABCC4 / RFU, LOC101060439 /// RAP1B / Fold change vs veh, LOC101060439 /// RAP1B / RFU, RFX7 / Fold change vs veh, RFX7 / RFU, GTPBP10 / Fold change vs veh, GTPBP10 / RFU, CNEP1R1 / Fold change vs veh, CNEP1R1 / RFU, BIVM-ERCC5 /// ERCC5 / Fold change vs veh, BIVM-ERCC5 /// ERCC5 / RFU, ILF3 / Fold change vs veh, ILF3 / RFU 11762660_at / Fold change /veh 11762660_at / RFU VCAN (11757783_s_at) / Fold change /veh VCAN (11757783_s_at) / RFU DDX43 (11728927_at) / Fold change /veh DDX43 (11728927_at) / RFU KRT8 (11758188_x_at) / Fold change /veh KRT8 (11758188_x_at) / RFU NKD1 (11759106_at) / Fold change /veh NKD1 (11759106_at) / RFU SRD5A1 (11742802_a_at) / Fold change /veh SRD5A1 (11742802_a_at) / RFU TPSAB1 /// TPSB2 (11721975_s_at) / Fold change /veh TPSAB1 /// TPSB2 (11721975_s_at) / RFU GSTM3 (11746129_a_at) / Fold change /veh GSTM3 (11746129_a_at) / RFU IL23R (11737362_x_at) / Fold change /veh IL23R (11737362_x_at) / RFU TMEM51 (11727254_a_at) / Fold change /veh TMEM51 (11727254_a_at) / RFU PIWIL2 (11732686_x_at) / Fold change /veh PIWIL2 (11732686_x_at) / RFU ORM1 (11744905_x_at) / Fold change /veh ORM1 (11744905_x_at) / RFU CCDC152 (11743942_at) / Fold change /veh CCDC152 (11743942_at) / RFU ECM1 (11717891_a_at) / Fold change /veh ECM1 (11717891_a_at) / RFU IL23R (11748794_a_at) / Fold change /veh IL23R (11748794_a_at) / RFU TNFAIP8L3 (11732012_x_at) / Fold change /veh TNFAIP8L3 (11732012_x_at) / RFU MBOAT4 (11741988_at) / Fold change /veh MBOAT4 (11741988_at) / RFU 11764193_at / Fold change /veh 11764193_at / RFU TMEM53 (11763286_at) / Fold change /veh TMEM53 (11763286_at) / RFU MAGEB2 (11727129_at) / Fold change /veh MAGEB2 (11727129_at) / RFU TMEM200A (11744735_a_at) / Fold change /veh TMEM200A (11744735_a_at) / RFU CCDC152 (11751479_a_at) / Fold change /veh CCDC152 (11751479_a_at) / RFU FAM211A (11726209_a_at) / Fold change /veh FAM211A (11726209_a_at) / RFU RGS16 (11746705_a_at) / Fold change /veh RGS16 (11746705_a_at) / RFU VCAN (11755009_s_at) / Fold change /veh VCAN (11755009_s_at) / RFU RHOB (11743442_s_at) / Fold change /veh RHOB (11743442_s_at) / RFU RGS16 (11720943_a_at) / Fold change /veh RGS16 (11720943_a_at) / RFU RGS16 (11720944_at) / Fold change /veh RGS16 (11720944_at) / RFU, VPS4B / Fold change vs veh, VPS4B / RFU, CREB1 / Fold change vs veh, CREB1 / RFU, DNAJC13 / Fold change vs veh, DNAJC13 / RFU, GNAQ / Fold change vs veh, GNAQ / RFU, CDK5R1 / Fold change vs veh, CDK5R1 / RFU, ZRANB3 / Fold change vs veh, ZRANB3 / RFU, CUL4A / Fold change vs veh, CUL4A / RFU, CCNY / Fold change vs veh, CCNY / RFU, UFL1 / Fold change vs veh, UFL1 / RFU, COG3 / Fold change vs veh, COG3 / RFU, DIAPH2 / Fold change vs veh, DIAPH2 / RFU, SKA2 / Fold change vs veh, SKA2 / RFU, AFF3 / Fold change vs veh, AFF3 / RFU, LMF1 / Fold change vs veh, LMF1 / RFU, IPO11 / Fold change vs veh, IPO11 / RFU, DFFB / Fold change vs veh, DFFB / RFU, FOXP1 / Fold change vs veh, FOXP1 / RFU, CARD8 / Fold change vs veh, CARD8 / RFU, STRN3 / Fold change vs veh, STRN3 / RFU, ADK / Fold change vs veh, ADK / RFU, RASSF2 / Fold change vs veh, RASSF2 / RFU, WIPF1 / Fold change vs veh, WIPF1 / RFU, LARP1B / Fold change vs veh, LARP1B / RFU, RASA1 / Fold change vs veh, RASA1 / RFU, RB1 / Fold change vs veh, RB1 / RFU, PPFIA1 / Fold change vs veh, PPFIA1 / RFU, MAT2A / Fold change vs veh, MAT2A / RFU, CCT5 / Fold change vs veh, CCT5 / RFU, WDR92 / Fold change vs veh, WDR92 / RFU, CUX1 / Fold change vs veh, CUX1 / RFU, TTC7A / Fold change vs veh, TTC7A / RFU, TMEM135 / Fold change vs veh, TMEM135 / RFU, DEPTOR / Fold change vs veh, DEPTOR / RFU, CPM / Fold change vs veh, CPM / RFU, DNAJB6 / Fold change vs veh, DNAJB6 / RFU, CACNA2D3 / Fold change vs veh, CACNA2D3 / RFU, DTX4 / Fold change vs veh, DTX4 / RFU, TFCP2 / Fold change vs veh, TFCP2 / RFU, GMCL1 /// GMCL1P1 / Fold change vs veh, GMCL1 /// GMCL1P1 / RFU, AEBP2 / Fold change vs veh, AEBP2 / RFU, SNHG1 /// SNORD22 /// SNORD25 /// SNORD26 /// SNORD27 /// SNORD28 /// SNORD29 /// SNORD31 / Fold change vs veh, SNHG1 /// SNORD22 /// SNORD25 /// SNORD26 /// SNORD27 /// SNORD28 /// SNORD29 /// SNORD31 / Fold change (Aza/veh), C12orf56 (ProbeSet 11735607_a_at) / Fold change (ACY-1035/veh), C12orf56 (ProbeSet 11735607_a_at) / Fold change (Aza/veh), FGFR1OP (ProbeSet 11751329_s_at) / Fold change (ACY-1035/veh), FGFR1OP (ProbeSet 11751329_s_at) / Fold change (Aza/veh), VPS36 (ProbeSet 11739960_a_at) / Fold change (ACY-1035/veh), VPS36 (ProbeSet 11739960_a_at) / RFU SYPL1 (11715823_x_at) / Fold change /veh SYPL1 (11715823_x_at) / RFU IGFBP7 (11715501_s_at) / Fold change /veh IGFBP7 (11715501_s_at) / RFU REEP3 (11722064_at) / Fold change /veh REEP3 (11722064_at) / RFU IGLL1 (11728026_x_at) / Fold change /veh IGLL1 (11728026_x_at): dose or concentration left out as unconfirmed
Conditions: MV-4-11 cells, 48 hours

SMILES: Nc1ncn([C@@H]2O[C@H](CO)[C@@H](O)[C@H]2O)c(=O)n1 [azacitidine]
- Fold change /veh ECM1 (11717891_a_at): 1.26
